In paper PMC6934184, “Selective DNA-PKcs inhibition extends the therapeutic index of localized radiotherapy and chemotherapy” (The Journal of Clinical Investigation, 2019):

Biological target: T1, MAPKAPK3 (Homo sapiens, UniProt Q16644)
T1 construct: purchased Thermo Fisher Scientific (Life Technologies) SelectScreen
Test: SelectScreen Z'LYTE
Type: biochemical
How it was run: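 NU5455 was profiled across the SelectScreen Broad panel of kinase activity and binding assays. Z'LYTE reactions such as CSF1R ran at apparent Km ATP, while the Adapta CAMK1 assay used ATP listed as 10. Values are given as percent.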

T1 sequence (Q16644 whole entry): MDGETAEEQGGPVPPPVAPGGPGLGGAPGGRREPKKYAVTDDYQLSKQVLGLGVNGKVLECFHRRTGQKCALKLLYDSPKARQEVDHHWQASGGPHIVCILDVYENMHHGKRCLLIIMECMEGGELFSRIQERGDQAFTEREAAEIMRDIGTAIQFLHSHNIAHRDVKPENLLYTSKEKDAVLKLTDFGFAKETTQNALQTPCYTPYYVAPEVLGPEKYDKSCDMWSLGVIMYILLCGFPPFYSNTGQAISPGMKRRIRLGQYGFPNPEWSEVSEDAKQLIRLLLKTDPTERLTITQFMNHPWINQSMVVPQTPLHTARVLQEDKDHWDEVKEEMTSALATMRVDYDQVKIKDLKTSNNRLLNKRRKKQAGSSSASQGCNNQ

CN(C(=O)CN1CCOCC1)c1ccc2sc3c(-c4cccc5c(=O)cc(N6CC7CCC(C6)O7)oc45)cccc3c2c1 [NU5455]
inhibition at 1 µM: 1.4%
